Measured values published in ChEMBL document CHEMBL4417639, “Nt5c2 inhibitors useful for the treatment of chemotherapy resistant acute lymphoblastic leukemia” (2018).
The source made the active and inactive calls. The calls are words filed in the database; no cut-off is given here.

Tests used:
[1] = biological target: Cytosolic purine 5'-nucleotidase (Homo sapiens) (UniProt P49902); experiment: Inhibition of basal nucleotidase activity of recombinant NT5C2 (unknown origin) pre-incubated for 10 mins before IMP substrate addition and further incubated for 5 mins in absence of ATP by malachite green assay
[2] = biological target: Cytosolic purine 5'-nucleotidase (Homo sapiens) (UniProt P49902); experiment: Inhibition of nucleotidase activity of recombinant NT5C2 (unknown origin) pre-incubated for 10 mins before IMP substrate addition and further incubated for 5 mins in presence of 0.3 mM ATP by malachite green assay relative to control

Cytosolic purine 5'-nucleotidase (Homo sapiens), sequence (P49902 whole entry): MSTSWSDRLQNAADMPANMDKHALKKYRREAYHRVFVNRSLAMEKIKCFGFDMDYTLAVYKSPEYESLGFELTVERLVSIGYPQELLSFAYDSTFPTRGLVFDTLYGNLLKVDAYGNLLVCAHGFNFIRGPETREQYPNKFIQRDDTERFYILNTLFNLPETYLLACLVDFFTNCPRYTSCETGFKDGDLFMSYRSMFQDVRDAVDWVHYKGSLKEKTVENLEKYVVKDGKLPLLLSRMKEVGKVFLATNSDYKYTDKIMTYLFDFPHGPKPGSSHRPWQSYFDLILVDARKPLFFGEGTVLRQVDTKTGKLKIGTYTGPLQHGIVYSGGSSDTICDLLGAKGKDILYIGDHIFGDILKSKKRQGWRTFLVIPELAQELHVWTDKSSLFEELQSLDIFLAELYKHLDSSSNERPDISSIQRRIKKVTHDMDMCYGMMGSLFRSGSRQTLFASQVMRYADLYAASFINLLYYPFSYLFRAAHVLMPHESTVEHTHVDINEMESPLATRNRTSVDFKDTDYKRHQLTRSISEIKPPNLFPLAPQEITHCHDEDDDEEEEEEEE

Compound	inhibition [1]	inhibition [2] [%]
CCc1c(C)nc(N)nc1NCCc1csc(N)n1	Active	49
Cc1nc(N2CCC(c3cc(CC(=O)O)n[nH]3)CC2)cc(-n2cccn2)n1	Active	49
CCc1cc(NCCCc2csc(N)n2)nc(N)n1	Active	54
Cc1cc(N2CCC(c3cc(CC(=O)O)n[nH]3)CC2)nc(N2CCCC2)n1	Active	62
Nc1nc2c(c(N3CCc4nc(N)sc4C3)n1)CCCC2	Active	42
Nc1nc(N2CCOCC2)cc(N2CCC(c3cc(CC(=O)O)[nH]n3)CC2)n1	Active	85
Nc1nc2c(c(NCCc3csc(N)n3)n1)CCCC2	Active	75
CCc1nc(N)nc(N2CCCOC(CN3CCOCC3)C2)c1C (stereo unspecified)	Active	29
